According to ChEMBL document CHEMBL1137480, “Synthesis and structure-activity relationship of 7-(substituted)-aminomethyl-4-quinolone-3-carboxylic acid derivatives” (2007):
≈ marks a conversion by molar mass, not a printed value.

Columns and labels:
Format in all cases: functional
Staphylococcus aureus = assay: Antibacterial activity against Staphylococcus aureus 26003 after 24 hrs by agar dilution method
[1] = test system: Staphylococcus epidermidis; assay: Antibacterial activity against Staphylococcus epidermidis 26069 after 24 hrs by agar dilution method
Streptococcus pneumoniae = assay: Antibacterial activity against Streptococcus pneumoniae 31002 after 24 hrs by agar dilution method
Shigella boydii = assay: Antibacterial activity against Shigella boydii 51313 after 24 hrs by agar dilution method
Klebsiella pneumoniae = assay: Antibacterial activity against Klebsiella pneumoniae 46101 after 24 hrs by agar dilution method
Salmonella = assay: Antibacterial activity against […] 48107 after 24 hrs by agar dilution method

SMILES | MIC (Staphylococcus aureus) [µg/mL] | MIC [1] [µg/mL] | MIC (Streptococcus pneumoniae) [µg/mL] | MIC (Shigella boydii) [µg/mL] | MIC (Klebsiella pneumoniae) [µg/mL] | MIC (Salmonella) [µg/mL]
O=C(O)c1cn(C2CC2)c2c(F)c(CNc3cccc(Cl)c3)c(F)cc2c1=O | 0.195 (≈ 0.482 µM) | 1.56 (≈ 3.85 µM) | ≤ 0.049 | 0.78 (≈ 1.93 µM) | 1.56 (≈ 3.85 µM) | 1.56 (≈ 3.85 µM)
CN1CCN(Cc2c(F)cc3c(=O)c(C(=O)O)cn(C4CC4)c3c2F)CC1 | 12.5 (≈ 33.1 µM) | 12.5 (≈ 33.1 µM) | 1.56 (≈ 4.13 µM) | 1.56 (≈ 4.13 µM) | 1.56 (≈ 4.13 µM) | 1.56 (≈ 4.13 µM)
O=C(O)c1cn(C2CC2)c2c(F)c(CNC3CC3)c(F)cc2c1=O | 3.13 (≈ 9.36 µM) | 6.25 (≈ 18.7 µM) | 0.195 (≈ 0.583 µM) | 0.098 (≈ 0.293 µM) | ≤ 0.049 | 0.098 (≈ 0.293 µM)
CCCNCc1c(F)cc2c(=O)c(C(=O)O)cn(C3CC3)c2c1F | > 6.25 | > 6.25 | 3.13 (≈ 9.31 µM) | 0.195 (≈ 0.58 µM) | 0.39 (≈ 1.16 µM) | 0.098 (≈ 0.291 µM)
O=C(O)c1cn(C2CC2)c2c(F)c(CN3CCNCC3)c(F)cc2c1=O | 6.25 (≈ 17.2 µM) | 6.25 (≈ 17.2 µM) | 6.25 (≈ 17.2 µM) | 0.78 (≈ 2.15 µM) | 0.195 (≈ 0.537 µM) | 0.195 (≈ 0.537 µM)
O=C(O)c1cn(C2CC2)c2c(F)c(CNc3ccc(F)cc3)c(F)cc2c1=O | 0.78 (≈ 2.01 µM) | 1.56 (≈ 4.02 µM) | 0.049 (≈ 0.126 µM) | 0.195 (≈ 0.502 µM) | 0.78 (≈ 2.01 µM) | 0.39 (≈ 1 µM)
O=C(O)c1cn(C2CC2)c2c(F)c(CNc3ccc(F)c(Cl)c3)c(F)cc2c1=O | 0.39 (≈ 0.922 µM) | 1.56 (≈ 3.69 µM) | 0.39 (≈ 0.922 µM) | 1.56 (≈ 3.69 µM) | 1.56 (≈ 3.69 µM) | 0.78 (≈ 1.84 µM)
Cc1ccc(NCc2c(F)cc3c(=O)c(C(=O)O)cn(C4CC4)c3c2F)cc1 | 0.39 (≈ 1.01 µM) | 1.56 (≈ 4.06 µM) | 0.049 (≈ 0.127 µM) | 0.39 (≈ 1.01 µM) | 1.56 (≈ 4.06 µM) | 0.78 (≈ 2.03 µM)
CCNCc1c(F)cc2c(=O)c(C(=O)O)cn(C3CC3)c2c1F | > 6.25 | > 6.25 | 0.78 (≈ 2.42 µM) | ≤ 0.049 | ≤ 0.049 | 0.195 (≈ 0.605 µM)
O=C(O)c1cn(C2CC2)c2c(F)c(CNc3ccc(Cl)cc3)c(F)cc2c1=O | 0.39 (≈ 0.963 µM) | 1.56 (≈ 3.85 µM) | ≤ 0.049 | 1.56 (≈ 3.85 µM) | 1.56 (≈ 3.85 µM) | 1.56 (≈ 3.85 µM)
Cc1cc(C)nc(NCc2c(F)cc3c(=O)c(C(=O)O)cn(C4CC4)c3c2F)c1 | 0.39 (≈ 0.976 µM) | 1.56 (≈ 3.91 µM) | 0.098 (≈ 0.245 µM) | 0.39 (≈ 0.976 µM) | 0.78 (≈ 1.95 µM) | 0.78 (≈ 1.95 µM)
Cc1ccc(NCc2c(F)cc3c(=O)c(C(=O)O)cn(C4CC4)c3c2F)cc1C | 0.39 (≈ 0.979 µM) | 0.78 (≈ 1.96 µM) | 0.098 (≈ 0.246 µM) | 1.56 (≈ 3.92 µM) | 1.56 (≈ 3.92 µM) | 1.56 (≈ 3.92 µM)
O=C(O)c1cn(C2CC2)c2c(F)c(CNc3ccccc3)c(F)cc2c1=O | 0.78 (≈ 2.11 µM) | 1.56 (≈ 4.21 µM) | 0.049 (≈ 0.132 µM) | 0.39 (≈ 1.05 µM) | 0.78 (≈ 2.11 µM) | 0.39 (≈ 1.05 µM)
CCCCNCc1c(F)cc2c(=O)c(C(=O)O)cn(C3CC3)c2c1F | > 6.25 | > 6.25 | 3.13 (≈ 8.93 µM) | 0.39 (≈ 1.11 µM) | ≤ 0.049 | 0.195 (≈ 0.557 µM)
CC(C)CNCc1c(F)cc2c(=O)c(C(=O)O)cn(C3CC3)c2c1F | > 6.25 | > 6.25 | 1.56 (≈ 4.45 µM) | 0.195 (≈ 0.557 µM) | 0.098 (≈ 0.28 µM) | ≤ 0.049
O=C(O)c1cn(C2CC2)c2c(F)c(CNC3CCCCC3)c(F)cc2c1=O | > 6.25 | 6.25 (≈ 16.6 µM) | 1.56 (≈ 4.14 µM) | 0.78 (≈ 2.07 µM) | 0.195 (≈ 0.518 µM) | 0.195 (≈ 0.518 µM)
O=C(O)c1cn(C2CC2)c2c(F)c(Cn3ccnc3)c(F)cc2c1=O | 6.25 (≈ 18.1 µM) | > 6.25 | 0.78 (≈ 2.26 µM) | 0.39 (≈ 1.13 µM) | 0.195 (≈ 0.565 µM) | 0.195 (≈ 0.565 µM)
CCN(Cc1c(F)cc2c(=O)c(C(=O)O)cn(C3CC3)c2c1F)c1ccccc1 | 3.13 (≈ 7.86 µM) | 6.25 (≈ 15.7 µM) | 3.13 (≈ 7.86 µM) | 3.13 (≈ 7.86 µM) | 6.25 (≈ 15.7 µM) | 3.13 (≈ 7.86 µM)
CCn1cc(C(=O)O)c(=O)c2cc(F)c(CNC)c(F)c21 | > 6.25 | > 6.25 | 3.13 (≈ 10.6 µM) | 0.39 (≈ 1.32 µM) | 0.195 (≈ 0.658 µM) | 0.39 (≈ 1.32 µM)
CCNCc1c(F)cc2c(=O)c(C(=O)O)cn(CC)c2c1F | > 6.25 | > 6.25 | 3.13 (≈ 10.1 µM) | 0.39 (≈ 1.26 µM) | 0.195 (≈ 0.628 µM) | 0.39 (≈ 1.26 µM)
CCNCc1c(F)cc2c(=O)c(C(=O)O)cn3c2c1OC[C@@H]3C | > 6.25 | > 6.05 | 1.56 (≈ 4.87 µM) | 0.195 (≈ 0.609 µM) | 0.049 (≈ 0.153 µM) | 0.195 (≈ 0.609 µM)
CCCNCc1c(F)cc2c(=O)c(C(=O)O)cn3c2c1OC[C@@H]3C | > 6.25 | > 6.25 | 3.13 (≈ 9.36 µM) | 0.39 (≈ 1.17 µM) | 0.195 (≈ 0.583 µM) | 0.39 (≈ 1.17 µM)
